The text below walks through data of ChEMBL document CHEMBL5131386, “Synthesis and biological evaluation of novel schisanhenol derivatives as potential hepatoprotective agents” (Eur J Med Chem, 2022).

The source made the active and inactive calls. The calls are words filed in the database; no cut-off is given here.

Data set [1] deals with L02. Briefly: Hepatoprotective activity against concanavalin A induced liver injury in human HL7702 cells assessed as cell survival rate at 5 uM preincubated for 12 hrs followed by concanavalin A stimulation for 12 hrs by MTT assay (reference value: 51.37%). Format: functional. The following applies: time 24 hrs, read-out: Survival. For orientation: Tetrazolium assays rely on reduction of a dye to a coloured formazan, in cell work by metabolically active cells.

Data set [2] has as its system L02. Briefly: Hepatoprotective activity against concanavalin A induced human HL7702 cell apoptosis assessed as increase in Bcl-2 expression level at 5 uM preincubated for 12 hrs followed by concanavalin A stimulation for 12 hrs by Western blot analysis. Type of data set: functional, cell-based. The following applies: time 24.0 hrs.
Data set [3] deals with L02. Briefly: Hepatoprotective activity against concanavalin A induced human HL7702 cell apoptosis assessed as nuclear morphological changes at 5 uM preincubated for 12 hrs followed by concanavalin A stimulation for 12 hrs by Hoechst 33342 staining based fluorescence microscopy. The following applies: time 24.0 hrs. Format: functional.
Data set [4] concerns L02. Briefly: Cytotoxicity against human HL7702 cells ssessed as cell survival rate at 5 uM for 12 hrs by MTT assay. Format: toxicity, cell-based. Particulars: l02, 12 h.
For data set [5], the system named is L02. Briefly: Hepatoprotective activity against concanavalin A induced human HL7702 cell apoptosis assessed as decrease in cleaved caspase-3 level at 5 uM preincubated for 12 hrs followed by concanavalin A stimulation for 12 hrs by Western blot analysis. Format: functional, cell-based. The following applies: time 24.0 hrs. In general terms: A western blot detects proteins with antibodies after separation by electrophoresis.

For data set [6], the system named is L02. Briefly: Hepatoprotective activity against concanavalin A induced human HL7702 cell apoptosis assessed as decrease in Bax expression level at 5 uM preincubated for 12 hrs followed by concanavalin A stimulation for 12 hrs by Western blot analysis. Type of data set: functional, cell-based. The following applies: time 24.0 hrs.
Data set [7] has as its system L02. Briefly: Hepatoprotective activity against concanavalin A induced livery injury in human HL7702 cells assessed as decrease in JAK2 phosphorylation level at 5 uM preincubated for 12 hrs followed by concanavalin A stimulation for 12 hrs by Western blot analysis. Type of data set: functional, cell-based. The following applies: time 24.0 hrs.
Data set [8] deals with L02. Briefly: Hepatoprotective activity against concanavalin A induced livery injury in human HL7702 cells assessed as decrease in STAT3 phosphorylation level at 5 uM preincubated for 12 hrs followed by concanavalin A stimulation for 12 hrs by Western blot analysis. Type of data set: functional, cell-based. The following applies: time 24.0 hrs.
The subject of data set [9] is L02. Briefly: Hepatoprotective activity against concanavalin A induced livery injury in human HL7702 cells assessed as increase in HO-1 expression level at 5 uM preincubated for 12 hrs followed by concanavalin A stimulation for 12 hrs by Western blot analysis. Type of data set: functional, cell-based. Particulars: time 24.0 hrs.

In the case of `COc1cc2c(c(OC)c1OC)-c1c(O)c(OC)c(OC)c(N)c1CC(C)C(C)C2` (centres undefined), in the data set on L02 [1], the viability at 5 µM was 97.1%. In addition, the outcome in the data set with L02 [2], in the data set on L02 [3], in the data set with L02 [5] and in the data set with L02 [6] was Active. Besides, the Activity entry in the data set with L02 [4] is “Non-Toxic”.
For `COc1cc2c(c(OC)c1OC)-c1c(O)c(OC)c(OC)c(Cl)c1CC(C)C(C)C2` (centres undefined), the viability at 5 µM in the data set on L02 [1] came to 72.5%.
The same measure, in the same setting: to `COc1c(Cl)c2c(c(OC)c1OC)-c1c(c(Cl)c(OC)c(OC)c1OC(=O)c1cccnc1)CC(C)C(C)C2` (centres undefined) belongs 79.4%; to `COc1c(Cl)c2c(c(OC)c1OC)-c1c(c(Cl)c(OC)c(OC)c1OS(=O)(=O)Cc1ccccc1)CC(C)C(C)C2` (centres undefined), 71.4%.
Still for that read-out and setting: to `COc1c(O)c2c(c(Cl)c1OC)CC(C)C(C)Cc1c(Cl)c(OC)c(OC)c(OC)c1-2` (centres undefined) belongs 67.3%.
On to `COc1c(Cl)c2c(c(OC)c1OC)-c1c(c(Cl)c(OC)c(OC)c1OCCCOC(=O)C(CCSC)NC(=O)OC(C)(C)C)CC(C)C(C)C2` (centres undefined), for which the viability at 5 µM in the data set with L02 [1] was 90.8%. Further, the outcome with L02 [2], in the data set with L02 [3], in the data set with L02 [5] and in the data set with L02 [6] was Active. The Activity result with L02 [4] is reported as “Non-Toxic”.
For `COc1cc2c(c(OC)c1OC)-c1c(c(Cl)c(OC)c(OC)c1OC(=O)c1ccc(C(F)(F)F)cc1)CC(C)C(C)C2` (centres undefined), the viability at 5 µM in the data set on L02 [1] was 61.8%.
Still for that read-out and setting: to `COc1c(Cl)c2c(c(OC)c1OC)-c1c(c(Cl)c(OC)c(OC)c1OC(=O)c1ccc(C(F)(F)F)cc1)CC(C)C(C)C2` (centres undefined) belongs 65.1%.
Still for that read-out and setting: to `COc1cc2c(c(OC)c1OC)-c1c(c(Cl)c(OC)c(OC)c1OC(=O)CCl)CC(C)C(C)C2` (centres undefined) belongs 68.4%; to `COc1cc2c(c(OC)c1OC)-c1c(O)c(OC)c(OC)c([N+](=O)[O-])c1CC(C)C(C)C2` (centres undefined), 70.2%.
The same measure, in the same setting: the result for `COc1c(Cl)c2c(c(OC)c1OC)-c1c(c(Cl)c(OC)c(OC)c1OCCCO)CC(C)C(C)C2` (centres undefined) reads 67.1%.
On to `COc1cc2c(c(OC)c1OC)-c1c(c(Cl)c(OC)c(OC)c1OC(=O)c1cccnc1)CC(C)C(C)C2` (centres undefined), for which the viability at 5 µM with L02 [1] was 93.7%. In addition, the result with L02 [2], in the data set with L02 [3], in the data set on L02 [5], in the data set with L02 [6], in the data set on L02 [7] and in the data set with L02 [8] was Active. Moreover, in the data set on L02 [9], the result was Active. For the same compound, in the data set on L02 [4], the Activity result is on record as “Non-Toxic”.
Consider `COc1ccc(C(=O)Oc2c(OC)c(OC)c(Cl)c3c2-c2c(c(Cl)c(OC)c(OC)c2OC)CC(C)C(C)C3)cc1` (centres undefined), for which the viability at 5 µM in the data set with L02 [1] amounted to 53.6%.
Same read-out and setting: to `COc1cc2c(c(OC)c1OC)-c1c(c([N+](=O)[O-])c(OC)c(OC)c1OC(=O)c1cccnc1)CC(C)C(C)C2` (centres undefined) belongs 49.9%.
For the compound `COc1c(Cl)c2c(c(OC)c1OC)-c1c(c(Cl)c(OC)c(OC)c1OC(=O)/C=C/c1ccccc1)CC(C)C(C)C2` (centres undefined), the viability at 5 µM in the data set on L02 [1] was determined as 89.7%. Besides, the outcome with L02 [2], in the data set on L02 [3], in the data set with L02 [5], in the data set with L02 [6], with L02 [7] and with L02 [8] was Active. Also, in the data set on L02 [9], the outcome was Active. Moreover, in the data set on L02 [4], the Activity entry was “Non-Toxic”.
`COc1c(Cl)c2c(c(OC)c1OC)-c1c(c(Cl)c(OC)c(OC)c1OC(=O)c1ccc(Cl)cc1Cl)CC(C)C(C)C2` (centres undefined): the viability at 5 µM with L02 [1] is 68%.
Same read-out and setting: the result for `COc1cc2c(c(OC)c1OC)-c1c(c(Cl)c(OC)c(OC)c1OCCCOC(=O)/C=C/c1ccccc1)CC(C)C(C)C2` (centres undefined) reads 71%.
Regarding `COc1cc2c(c(OC)c1OC)-c1c(c([N+](=O)[O-])c(OC)c(OC)c1OC(=O)/C=C/c1ccccc1)CC(C)C(C)C2` (centres undefined), the viability at 5 µM in the data set on L02 [1] was 97.4%. Also, the outcome with L02 [2], in the data set on L02 [3], with L02 [5] and in the data set with L02 [6] was Active. Further, the Activity entry in the data set with L02 [4] is on record as “Non-Toxic”.
As for `COc1cc2c(c(OC)c1OC)-c1c(c(N)c(OC)c(OC)c1OS(=O)(=O)c1ccc(C)cc1)CC(C)C(C)C2` (centres undefined), the viability at 5 µM with L02 [1] worked out at 89%. The result in the data set with L02 [2], in the data set with L02 [3], in the data set with L02 [5] and with L02 [6] was Active. Moreover, in the data set with L02 [4], the Activity result is “Non-Toxic”.
On to `COc1c(Cl)c2c(c(OC)c1OC)-c1c(c(Cl)c(OC)c(OC)c1OC(=O)c1ccc([N+](=O)[O-])cc1)CC(C)C(C)C2` (centres undefined), for which, in the data set with L02 [1], the viability at 5 µM turned out to be 59.4%.
On the same count and under the same terms, the result for `COc1ccc(C(=O)Oc2c(OC)c(OC)c(Cl)c3c2-c2c(cc(OC)c(OC)c2OC)CC(C)C(C)C3)cc1` (centres undefined) reads 70%; that for `COC1=C(OC)C(OC)CC2=C1c1c(c([N+](=O)[O-])c(OC)c(OC)c1OCCCO)CC(C)C(C)C2` (centres undefined), 73.1%; that for `COc1c(Cl)c2c(c(OC)c1OC)-c1c(c(Cl)c(OC)c(OC)c1OC(=O)c1cccs1)CC(C)C(C)C2` (centres undefined), 80.4%.
